Our source for the IC50 and EC50 values is PMC4889029 (Chemistry & biology, 2015).

SMILES strings stand for the structures. Where two headings read alike, the source gives them in different places.

Common to all, as to experiment: in vitro DNA strand exchange assay with recombinant hRAD51
What all share (format): biochemical

The target in assay [1] is T1, hRAD51 (Homo sapiens, UniProt Q06609).
T1 sequence (Q06609 2-339): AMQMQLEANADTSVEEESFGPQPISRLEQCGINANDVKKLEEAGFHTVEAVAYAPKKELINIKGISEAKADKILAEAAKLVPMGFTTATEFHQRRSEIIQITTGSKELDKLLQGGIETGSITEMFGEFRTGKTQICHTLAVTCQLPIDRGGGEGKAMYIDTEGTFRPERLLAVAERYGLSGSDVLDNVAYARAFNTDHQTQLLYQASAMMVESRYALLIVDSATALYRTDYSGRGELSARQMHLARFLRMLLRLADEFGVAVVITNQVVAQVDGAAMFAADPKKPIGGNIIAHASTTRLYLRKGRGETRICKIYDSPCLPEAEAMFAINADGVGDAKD

The target in assay [2] is T1, hRAD51. The source holds these as a separate data set.
Assay [3] deals with T1, hRAD51. The source holds these as a separate data set.

`O=S(=O)(O)c1cc(N=C=S)ccc1/C=C/c1ccc(N=C=S)cc1S(=O)(=O)O` [DIDS]: in assay [1], the IC50 (commonly the point on the concentration scale where inhibition reaches its midpoint) came to 90 ± 2.5 µM. Take `COc1cc(/C=C/c2ccc(O)cc2)cc(OC)c1` [P-ter, E-pterostilbene]: the EC50 (usually the concentration needed to bring the measured effect to its halfway point) in assay [2] amounted to 19.2 ± 2.4 µM. As to `O=C1C(Cl)=C(N2CCOCC2)C(=O)N1c1ccc(Cl)c(Cl)c1` [RI-1], the IC50 in assay [1] was determined as 50 ± 5 µM. As for `O=C(Nc1ccc(Br)cc1)c1ccc(Br)c(S(=O)(=O)NCc2ccccc2)c1` [RS-1], in assay [3], the EC50 was determined as 25 ± 3 µM.
